From US20190337924A1, “SUBSTITUTED HYDANTOIN AND THIOHYDANTOIN DERIVATIVES AS ANDROGEN RECEPTOR ANTAGONISTS” (Janssen Pharmaceutica NV, priority 2016, published 2019)
Structures can show the parent of a compound that is named as a salt.

CC1(C)C(=O)N(c2ccc(C#N)c(Cl)c2)C(=S)N1c1ccc(OC2CCNCC2)cc1 (as salt: hydrochloride) [Compound 7, 2-Chloro-4-(4,4-dimethyl-5-oxo-3-(4-(piperidin-4-yloxy)phenyl)-2-thioxoimidazolidin-1-yl)benzonitrile hydrochloride] showed a melting point of over 300 °C.

Compared with CN1CCC(Oc2ccc(N3C(=S)N(c4ccc(C#N)c(Cl)c4)C(=O)C3(C)C)cc2)CC1 (as salt: hydrochloride) [Compound 8, 2-Chloro-4-(4,4-dimethyl-3-(4-((1-methylpiperidin-4-yl)oxy)phenyl)-5-oxo-2-thioxoimidazolidin-1-yl)benzonitrile hydrochloride], CN1CCC(Oc2ccc(N3C(=S)N(c4ccc(C#N)c(Cl)c4)C(=O)C3(C)C)cn2)CC1 (as salt: hydrochloride) [Compound 10, 2-Chloro-4-(4,4-dimethyl-3-(6-((1-methylpiperidin-4-yl)oxy)pyridin-3-yl)-5-oxo-2-thioxoimidazolidin-1-yl)benzonitrile hydrochloride] is lower in melting point: 251.7 °C for the first, 220.9 °C for the second.

Compared with CC1(C)C(=O)N(c2ccc(C#N)c(Cl)c2)C(=S)N1c1ccc(OC2CCNCC2)nc1 (as salt: hydrochloride) [Compound 9, 2-Chloro-4-(4,4-dimethyl-5-oxo-3-(6-(piperidin-4-yloxy)pyridin-3-yl)-2-thioxoimidazolidin-1-yl)benzonitrile hydrochloride], N#Cc1ccc(N2C(=O)C3(CCC3)N(c3ccc(OC4CCNCC4)nc3)C2=S)cc1Cl (as salt: hydrochloride) [Compound 23, 2-Chloro-4-(8-oxo-5-(6-(piperidin-4-yloxy)pyridin-3-yl)-6-thioxo-5,7-diazaspiro[3.4]octan-7-yl)benzonitrile hydrochloride] is higher in melting point: 216.5 °C for the first, 260.1 °C for the second.

In the case of CN1CCC(Oc2ccc(N3C(=S)N(c4ccc(C#N)c(Cl)c4)C(=O)C34CCC4)cn2)CC1 (as salt: hydrochloride) [Compound 24, 2-Chloro-4-(5-(6-((1-methylpiperidin-4-yl)oxy)pyridin-3-yl)-8-oxo-6-thioxo-5,7-diazaspiro[3.4]octan-7-yl)benzonitrile hydrochloride], the melting point is reported as 239 °C.
